Here are results for one molecule from patent US6455556B2, “Crystal modifications of 1-(2,6-difluorobenzyl)-1H-1,2,3-triazole-4-carboxamide” (Novartis AG, priority 1997, dated 2002).

This data set can be described thus: dissolution rate in water and gastric fluid. Format: physicochemical. Conditions: compared with modification A or A′.

Take `NC(=O)c1cn(Cc2c(F)cccc2F)nn1` [modification B, 1-(2,6-difluorobenzyl)-1H-1,2,3-triazole-4-carboxamide]: under “gastric fluid”, the “dissolution rate in gastric fluid” value was “substantially faster”. In addition, under “water”, the “dissolution rate in water” value is recorded as “substantially faster”.
